{
  "source": "patent US11185523B2",
  "about": "“Use of bipolar trans carotenoids with chemotherapy and radiotherapy for treatment of cancer” (DIFFUSION PHARMACEUTICALS LLC, priority 2016, dated 2021)",
  "key": {"[1]": {"system": "Hemorrhagic Stroke", "assay": "Pre-clinical efficacy study: Hemorrhagic Stroke", "type": "in vivo", "settings": "Rat", "description": "(§1) It has also been determined that several non-cancer disorders are beneficially treated utilizing an administration regimen of a bipolar trans carotenoid such as TSC, as described below."}, "[2]": {"system": "newly diagnosed GBM", "assay": "Phase ½ clinical trial of TSC with RT and TMZ in GBM", "type": "in vivo, human", "settings": "for Observed Survival Rate with TSC Treatment (Kaplan-Meier): TSC 0.25 mg/kg IV 3 times per week about 45 minutes prior to RT, plus TMZ", "description": "To date, TSC has been used in 148 human subjects […] […] A Phase 1⁄2 clinical trial was recently completed examining TSC in patients with GBM. The Phase 1⁄2 clinical trial in GBM enrolled 59 patients with newly diagnosed disease that received TSC in conjunction with radiation therapy (RT) and temozolomide (TMZ). In the Phase I portion of the trial TSC was initially administered three times per week at half-dose to three patients prior to radiation. Six additional patients received full dose TSC for six weeks in combination with radiation. […] Fifty additional patients were enrolled in the Phase II trial at full dose TSC in combination with TMZ and RT. Four weeks after completion of RT, all patients resumed TMZ for five days every four weeks, but no further TSC was administered. More specifically, fifty-nine patients with newly-diagnosed GBM were enrolled. Patients received standard of care (SOC) radiation therapy (RT) (2 Gy/day, 5 days/week for 6 weeks) and TMZ (75 mg/m2) starting within 5 weeks after a surgical resection of their tumor, if such surgery were possible. Patients receiving only needle biopsies (i.e., no surgery) were also enrolled. In addition to the SOC, TSC was administered 3 times per week, 0.25 mg/kg IV, usually on Monday, Wednesday and Friday, about 45 minutes prior to the RT sessions. Four weeks after completion of RT, patients began chemotherapy with TMZ for 5 days of the first week of a 4 week cycle. This continued for 6 such cycles. No TSC was administered during this chemotherapy."}, "[3]": {"system": "DMBA breast tumors", "assay": "DMBA breast tumor model, TSC before chemotherapy", "type": "in vivo"}, "[4]": {"assay": "Stability of TSC versus pH", "type": "physicochemical", "settings": "dependence on pH", "method": "Mannitol can be used to adjust osmolality and its concentration varies depending on the concentration of other ingredients. The glycine is held constant. […] The use of glycine is compatible with lyophilization. Alternatively, the TSC and cyclodextrin is formulated using a 50 mM bicarbonate or other buffers, in place of the glycine."}, "[5]": {"system": "Memory Recall", "assay": "Pre-clinical efficacy study: Memory Recall", "type": "in vivo", "settings": "Rat", "description": "as §1"}},
  "data": [
    {"smiles": "CC(/C=C/C=C(\\C)C(=O)[O-])=C\\C=C\\C=C(C)\\C=C\\C=C(/C)C(=O)[O-].[Na+].[Na+]", "note": "[TSC, trans sodium crocetinate]", "values": [
      {"measurement": "Best Dosage", "setting": "[1]", "result": "Low"},
      {"measurement": "Observed Survival Rate with TSC Treatment (Kaplan-Meier)", "setting": "[2]; 1 year", "result": 71.2, "unit": "%"},
      {"measurement": "Observed Survival Rate with TSC Treatment (Kaplan-Meier)", "setting": "[2]; 2 years", "result": 36.3, "unit": "%"},
      {"measurement": "reduction in tumor size", "setting": "[2]; 37 patients with partial resection or no resection, MRI", "result": "vast majority of these 37 patients showed reduction in tumor size"},
      {"measurement": "survival at 2 years vs historical controls", "setting": "[2]; all groups of patients administered TSC in addition to SOC treatment", "result": "better survival at 2 years"},
      {"measurement": "survival greater than rate in historical trial", "setting": "[2]; at both 1 and 2 years", "result": 10, "unit": "%"},
      {"measurement": "survivability at two years", "setting": "[2]; biopsy-only patients", "result": 42.9, "unit": "%"},
      {"measurement": "patients showing complete elimination of tumors", "setting": "[2]; full-dose patients", "result": "~20", "unit": "%"},
      {"measurement": "effect on glioblastoma multiforme tumors", "setting": "[2]; low dose (0.25 mg/kg) 45 minutes before radiation", "result": "effective"},
      {"measurement": "dose-limiting toxicities", "setting": "[2]; nine patients, Phase I portion, half-dose and full dose TSC with radiation", "result": "No dose-limiting toxicities were identified"},
      {"measurement": "increase in chance of survival at two years", "setting": "[2]; subgroup of patients considered inoperable, vs control", "result": "over 100%"},
      {"measurement": "alive at two years", "setting": "[2]; subgroup of patients considered inoperable, less than 20 percent in the control", "result": 40, "unit": "%"},
      {"measurement": "effect on tumor volume with cisplatin", "setting": "[3]; low dose (for rats) 0.1 mg/kg TSC IV 50 minutes before chemotherapy", "result": "not effective"},
      {"measurement": "effect on tumor volume with gemcitabine", "setting": "[3]; low dose of TSC 50 minutes before chemotherapy", "result": "not effective"},
      {"measurement": "stability", "setting": "[4]", "result": "more stable at higher pHs"},
      {"measurement": "Best Dosage", "setting": "[5]", "result": "High"}
    ]}
  ]
}
